Experiment [1] concerns E. coli. The experiment can be described thus: Time kill assay, E. coli. It is filed as cell-based, Escherichia coli. Here is the method: Bacteria MRSA (Gram-positive) and E. coli (Gram-negative) suspensions were allowed to grow at 37° C. to the mid-logarithmic phase, and diluted to 1×10^6 CFU/mL, […], 30 min, 1 h and 2 h, respectively. The resulted mixture was then diluted by 10^2 to 10^4 fold, from which 100 μL was spread on the TSB agar plate. The Number of bacteria colonies was counted after 20 h of incubation at 37° C.

In experiment [2] the test system is MRSA. In words: Rat model of MRSA-induced pneumonia, bacterial count in lungs. Format: in vivo. The settings on record: 10 mg/kg i.v. As for the experimental part:
(§1) The rat model of MRSA-induced pneumonia.^4, 5
(§2) The protocol of animal studies was approved by the institutional committee for animal care of Nanjing University, and the experiments were conducted following the regulation of the National Ministry of Health of China. In Brief, male Wistar rats (6-8 weeks, ˜200 g in average weight) were subjected to fast for 12 h. Next, rats were anesthetized by intraperitoneal administration of 0.35 g/kg of chloral hydrate. To induce MRSA pneumonia, the trachea of rats were exposed, to which 100 μL PBS containing 2×10^6 CFU/mL MRSA in PBS was slowly injected. The rats were retained upright for 1 min, and the cut was sealed. The MRSA infection was allowed to develop for 24 h.
Bronchoalveolar lavage (BAL) assay.
The assay was carried out to quantify the bacteria in the lungs of rats. The thorax of rats was opened, and the lungs were collected in each group at different time points. Then the lungs were malleated and homogenized by a glass homogenizer, and diluted with PBS to the determined volume. After that, 10 μL solution was picked up, diluted with PBS by 100-fold, and daubed on the isolation medium. Bacteria were counted in each sample after incubation for 24 h at 37° C., from which the number of bacteria (colonies/g tissue) was calculated.

The subject of experiment [3] is panel of Gram-positive and Gram-negative bacteria. The experiment can be described thus: Antimicrobial activity against the whole panel of bacteria. Format: cell-based. The settings on record: all tested strains; read-out: MICs against all tested Gram-positive and Gram-negative strains. As for the experimental part:
(§3) Minimum inhibitory concentrations (MICs) assay.^2
(§4) All compounds were tested against six different bacteria strains: methicillin-resistant S. aureus (MRSA, ATCC 33591), E. coli (ATCC 25922), methicillin-resistant S. epidermidis (MRSE, RP62A), K. pneumoniae (ATCC 13383), vancomycin-resistant Enterococcus faecalis (VREF, ATCC 700802), P. aeruginosa (ATCC 27853). One colony of each bacteria was inoculated in 4 mL TSB buffer at 37° C. overnight, which was then diluted 100 times, and the bacteria were allowed to grow to the mid-logarithmic phase. 50 μL hydantoin compounds in 2-fold serial dilution of TSB were added in the 96-well plate, then 50 μL diluted bacterial in TSB medium (1×10^6 CFU/mL) was added to each well. After 16 h of incubation at 37° C., the absorption at 600 nm wavelength on a Biotek Synergy HT microtiter plate reader was recorded. Minimum inhibitory concentrations were determined as the lowest concentrations that inhibited bacteria growth completely.

In experiment [4] the test system is colon cancer cells (HCT116). In words: Selectivity for mammalian cells, HCT116. It is filed as cell-based. The settings on record: Homo sapiens, HCT-116; read-out: IC50 toward colon cancer cells (HCT116).
In experiment [5] the test system is MRSA. The experiment can be described thus: Time kill assay, MRSA. It is filed as cell-based, Staphylococcus aureus. Here is the method: Bacteria MRSA (Gram-positive) and E. coli (Gram-negative) suspensions were allowed to grow at 37° C. to the mid-logarithmic phase, and diluted to 1×10^6 CFU/mL, then incubated with the compound 22 at the concentration of 50, 25, 12.5 μg/mL at 10 min, 30 min, 1 h and 2 h, respectively. The resulted mixture was then diluted by 10^2 to 10^4 fold, from which 100 μL was spread on the TSB agar plate. The Number of bacteria colonies was counted after 20 h of incubation at 37° C.

The subject of experiment [6] is K. pneumoniae (ATCC 13383). The experiment can be described thus: Minimum inhibitory concentration (MIC) assay, K. pneumoniae. Format: cell-based, Klebsiella pneumoniae. The following applies: Klebsiella pneumoniae, ATCC13383, Gram negative, 16 h incubation, read-out: MIC (μg/mL) K.P. Here is the method:
as §3, §4

Experiment [7] relates to MRSA. The experiment can be described thus: Fluorescence microscopy (DAPI/PI) membrane damage, MRSA. The following applies: 5 μg/mL, 2 h. Format: cell-based, Staphylococcus aureus.
In experiment [8] the test system is E. coli. The experiment can be described thus: Fluorescence microscopy (DAPI/PI) membrane damage, E. coli. Format: cell-based, Escherichia coli. The settings on record: 5 μg/mL, 2 h. Here is the method: Fluorescence microscopy.^2
Both propidium iodide (PI) and 4′, 6′-diamidino-2-phenylindole dihydrochloride (DAPI) fluorescent dyes were used in the studies to determine the ability of the compound 22 to compromise the membranes of MRSA and E. coli, respectively. […] After centrifugation for 15 min at 5000 rpm, cell pellets were washed with 1×PBS buffer, and incubated with PI (5 μg/mL) for 15 min on ice in the dark, then washed 2 times with PBS. Then the cell pellets were incubated with DAPI (10 μg/mL) in the similar way. The pellets were then diluted in 100 μL PBS, and 10-20 μL of the suspension was applied on chamber slides and observed under Zeiss Axio Image Zloptical microscope using 100× oil-immersion objective.

Experiment [9] relates to methicillin-resistant S. epidermidis (MRSE, RP62A). The experiment can be described thus: Minimum inhibitory concentration (MIC) assay, MRSE. Format: cell-based, Staphylococcus epidermidis. The following applies: Staphylococcus epidermidis, MRSE, Gram positive, 16 h incubation, read-out: MIC (μg/mL) MRSE. As for the experimental part:
as §3, §4

Experiment [10] has as its system P. aeruginosa (ATCC 27853). The experiment can be described thus: Minimum inhibitory concentration (MIC) assay, P. aeruginosa. It is filed as cell-based, Pseudomonas aeruginosa. Here is the method:
as §3, §4

Experiment [11] deals with MRSA-induced lung inflammation. The experiment can be described thus: Rat model of MRSA-induced pneumonia, pathological analysis (H&E). It is filed as in vivo. The following applies: 10 mg/kg i.v. As for the experimental part: as §1, §2
The hydantoin compound 22 or vancomycin were used as antibiotics in the study. In brief, a dose of 10 mg/kg of the drug was injected to the tested rats intravenously. On the day of 3 and 5, rats were sacrificed, and lung sections were stained with hematoxylin and eosin (H&E), and their morphology was investigated under a light microscope at 100× magnification. The existence (indicated by the infiltration of neutrophils) and the extent of possible inflammatory response (indicated by the integrity of the alveolar structure and endothelium cilium) were recorded from at least five randomly picked sections by an experienced physician.

The source of these data is US10793526B2, “Hydantoin derivative compounds, methods of use and methods of treatment” (University of South Florida, priority 2016, dated 2020).

Structures are written as SMILES. Converted amounts (≈) assume the structure as drawn. Where only a bound is given, the exact number is not on record here.

As a reminder, the IC50 is the concentration needed to halve the response being measured. With `CCCCCCCCCCCC(=O)N[C@@H](CCCCN)CN1CC(=O)N(c2cccc(Cl)c2)C1=O` [Compound 22, (S)—N-(6-amino-1-(3-(3-chlorophenyl)-2,4-dioxoimidazolidin-1-yl)hexan-2-yl)dodecanamide], the “time to completely eradicate E. coli” value in experiment [1] (4.0 μg/mL (4×MIC)) is recorded as 60 min. The “time to eradicate all E. coli” value in experiment [1] (25 μg/mL) and in [1] (50 μg/mL) was 30 min each time. The “reduction of bacteria compared with the control, day 5” value in [2] is given as 96%. The MIC was under 1 µg/mL in experiment [3]; 0.78 µg/mL in experiment [6]; 0.5 µg/mL in experiment [9]; 1 µg/mL in [10] (Pseudomonas aeruginosa, ATCC27853, Gram negative, ATCC 27853, 16 h incubation, read-out: MIC (μg/mL) P.A.). Also, the IC50 in experiment [4] was 100 µg/mL (≈ 197 µM). In addition, the “time to completely eradicate MRSA” value in experiment [5] (2.0 μg/mL (4×MIC)) amounted to 60 min; in experiment [5] (25 μg/mL), 10 min. Also, the “membrane damage of MRSA (DAPI/PI staining)” value in experiment [7] is “membranes of both MRSA and E. coli were damaged”. Moreover, in experiment [8], the “membrane damage of E. coli (DAPI/PI staining)” value is “membranes of both MRSA and E. coli were damaged”. Moreover, in experiment [10] (ratio of MICs), the “effectiveness toward P. aeruginosa compared with nitrofurantoin” value is “at least 50 fold”. Moreover, the “lung inflammation (H&E staining), day 3” value in experiment [11] (day 3) was “only mild inflammation”. Also, the “lung inflammation (H&E staining), day 5” value in experiment [11] (day 5) is on record as “virtually the normal condition”.
